Measurements from patent US20190381128A1, “GLP-1 Secretagogue and Composition” (MORINAGA MILK INDUSTRY CO., LTD., priority 2017, published 2019).

How the values were obtained:
GLUTag cells [1] = assay: GLP-1 secretion cell assay using GLUTag cells (ELISA of culture supernatant); type: cell-based, mouse
Description: Each sample was dissolved in Milli Q water and a solution having a protein concentration of 7.5 mg/mL was prepared by the Bradford method. The solution was adjusted to pH 2.0, which is the same pH as in the human stomach, with a 1 mol/L hydrochloric acid, then pepsin (Pep, Sigma-Aldrich; in 1 mM HCL) was added in an amount of 1/12.5 (w/w) relative to the proteins, and the mixture was shaken in a 37° C. thermostat at 140 rpm for 30 minutes. Then, the pH was adjusted to 7.0 with a 1 mol/L sodium hydrogen carbonate solution to stop the digestion reaction of pepsin. Subsequently, pancreatin (Pan, Sigma-Aldrich; in 0.1 M NaHCO3) was added in an amount of 1/62.5 (w/w) relative to the proteins, and the mixture was shaken in a 37° C. thermostat at 140 rpm for a desired time (5 minutes, 10 minutes, 15 minutes, 30 minutes, 45 minutes, 60 minutes, 120 minutes, or overnight). After that, with heat at 90° C. for 3 minutes, the digestion reaction by pancreatin was stopped. The solution after digestion was lyophilized and stored at 4° C. The digestion reactions simulated the state of digestion that a micellar casein and various casein materials taken in the body undergo in the gastrointestinal tract.
GLUTag cells (see, for example, Food Funct., 2015, vol. 6, p. 2525-2534) were cultured on a culture medium containing 10% fetal bovine serum (Dulbecco's modified Eagle's medium (DMEM), GIBCO) at 37° C. in a 5% CO2 incubator for 2 to 3 days into a subconfluent layer. Then, the culture medium was removed, and the cells were suspended twice with HEPES buffer (20 mM HEPES(Sigma), 140 mM NaCl (Wako), 4.5 mM KCl (Wako), 10 mM Glucose (Wako), 1.2 mM MgCl2 (Wako), 1.2 mM CaCl2 (Wako), 0.1% BSA (Sigma), pH7.4).
The lyophilized sample of (1) was dissolved with HEPES buffer so as to give a concentration of 5 mg/mL, and 80 μL of the resulting solution was added to each well of a 48-well culture plate containing the GLUTag cells cultured therein and the cells were incubated at 37° C. for […]. After the treatment, the culture supernatant was collected and was subjected to centrifugation at 800 g at 4° C. for 5 minutes and the resulting supernatant was stored at −80° C. as an ELISA measurement sample. The amount of GLP-1 in the supernatant was measured using ELISA (Millipore) according to a protocol recommended by the manufacturer. The amount of GLP-1 was represented as a relative amount to 100% of that of a group treated only with HEPES buffer (blank group). The number of samples was always three (n=3).
The lyophilized sample of (1) was subjected to an assay using GLUTag cells by the same method and conditions as in Example 1 and the amount of GLP-1 secreted was represented as a relative amount to 100% of that of a blank group. The number of samples was always three (n=3).
The lyophilized sample of (1) was subjected to an assay using GLUTag cells by the same method and conditions as in Example 1, and the amount of GLP-1 secreted was measured as a relative amount to 100% of that of a blank group, provided that the digested product of the κ-casein material sample was diluted at a concentration of 5 mg/mL or 0.5 mg/mL in dissolution in HEPES buffer. A glycomacropeptide (CGMP: from Arla) was also provided as a sample and the standard sample was dissolved as it was in HEPES buffer at a concentration of […]. In the assay, GLUTag cells obtained through depolarizing stimulation with 70 mM KCl were used as a positive control. The amount of GLP-1 secreted was represented as a relative amount to 100% of that of a blank group. The number of samples was always three or four (n=3 to 4).
The lyophilized sample of (1) was subjected to an assay using GLUTag cells by the same method and conditions as in Example 1, and the amount of GLP-1 secreted was represented as a relative amount to 100% of that of a blank group. The number of samples was always three (n=3). […]

GLUTag cells [2] = assay: as above; type: cell-based, mouse; conditions: for GLP-1 secretion stimulating activity on GLUTag cells, ratio to blank group: Table 8; for GLP-1 secretion stimulating activity in comparison with the blank group: Dunnett t-test
[3] = synthesized peptide 1 mM in HEPES buffer
[4] = synthesized peptide 5 mM in HEPES buffer

κ-Casein: κ-casein from bovine milk (from Sigma-Aldrich)
GLP-1 secretion stimulating activity on GLUTag cells, ratio to blank group (GLUTag cells [1]; Table 3, non-degraded, 0.5 mg/ml): 115.6 (c) %
GLP-1 secretion stimulating activity on GLUTag cells, ratio to blank group (GLUTag cells [1]; Table 3, non-degraded, 5 mg/ml): 176.5 (b) %
GLP-1 secretion stimulating activity on GLUTag cells, ratio to blank group (GLUTag cells [1]; Table 3, pep + pan30, 0.5 mg/ml): 140.9 (c) %
GLP-1 secretion stimulating activity on GLUTag cells, ratio to blank group (GLUTag cells [1]; Table 3, pep + pan30, 5 mg/ml): 225.2 (b) %
GLP-1 secretion stimulating activity on GLUTag cells, ratio to blank group (GLUTag cells [1]; Table 3, pep + pan60, 0.5 mg/ml): 149.2 (b) %
GLP-1 secretion stimulating activity on GLUTag cells, ratio to blank group (GLUTag cells [1]; Table 3, pep + pan60, 5 mg/ml): 216.2 (b) %
GLP-1 secretion stimulating activity on GLUTag cells, ratio to blank group (GLUTag cells [1]; Table 3, pep only, 0.5 mg/ml): 150.5 (c) %
GLP-1 secretion stimulating activity on GLUTag cells, ratio to blank group (GLUTag cells [1]; Table 3, pep only, 5 mg/ml): 261.8 (b) %

LEDSPEVIESPPEINT (peptide 5) [SEQ ID NO: 5, peptide fragment detected in micellar casein digested product, synthesized]
GLP-1 secretion stimulating activity on GLUTag cells, ratio to blank group (GLUTag cells [2]; [3]): 133.9%
GLP-1 secretion stimulating activity on GLUTag cells, ratio to blank group (GLUTag cells [2]; [4]): 136.9%

YPVEPFTESQ (peptide 3) [SEQ ID NO: 3, peptide fragment detected in micellar casein digested product, synthesized]
GLP-1 secretion stimulating activity on GLUTag cells, ratio to blank group (GLUTag cells [2]; [3]): 168.7 (*) %
GLP-1 secretion stimulating activity on GLUTag cells, ratio to blank group (GLUTag cells [2]; [4]): 143.5%
GLP-1 secretion stimulating activity in comparison with the blank group (GLUTag cells [2]; peptide 1 mM): significantly higher

YQKFPQYL (peptide 7) [SEQ ID NO: 7, peptide fragment found in both micellar casein hydrolysate and casein hydrolysate, synthesized]
GLP-1 secretion stimulating activity on GLUTag cells, ratio to blank group (GLUTag cells [2]; [3]): 160.8%
GLP-1 secretion stimulating activity on GLUTag cells, ratio to blank group (GLUTag cells [2]; [4]): 87.1%

Glycomacropeptide
GLP-1 secretion stimulating activity on GLUTag cells, ratio to blank group (GLUTag cells [1]; Table 4, non-degraded (glycomacropeptide dissolved as it was in HEPES buffer)): 81.8%

GPVRGPFPIIV (peptide 1) [SEQ ID NO: 1, peptide fragment detected in micellar casein digested product, synthesized]
GLP-1 secretion stimulating activity on GLUTag cells, ratio to blank group (GLUTag cells [2]; [3]): 126.0%
GLP-1 secretion stimulating activity on GLUTag cells, ratio to blank group (GLUTag cells [2]; [4]): 254.8 (*) %
GLP-1 secretion stimulating activity in comparison with the blank group (GLUTag cells [2]; peptide 5 mM): significantly higher

SRYPSYGLN (peptide 6) [SEQ ID NO: 6, peptide fragment found in both micellar casein hydrolysate and casein hydrolysate, synthesized]
GLP-1 secretion stimulating activity on GLUTag cells, ratio to blank group (GLUTag cells [2]; [3]): 123.6%
GLP-1 secretion stimulating activity on GLUTag cells, ratio to blank group (GLUTag cells [2]; [4]): 149.7%

HQGLPQEVLNE (peptide 4) [SEQ ID NO: 4, peptide fragment detected in micellar casein digested product, synthesized]
GLP-1 secretion stimulating activity on GLUTag cells, ratio to blank group (GLUTag cells [2]; [3]): 158.9%
GLP-1 secretion stimulating activity on GLUTag cells, ratio to blank group (GLUTag cells [2]; [4]): 115.6%

HIQKEDVPSE (peptide 2) [SEQ ID NO: 2, peptide fragment detected in micellar casein digested product, synthesized]
GLP-1 secretion stimulating activity on GLUTag cells, ratio to blank group (GLUTag cells [2]; [3]): 141.8%
GLP-1 secretion stimulating activity on GLUTag cells, ratio to blank group (GLUTag cells [2]; [4]): 200.5 (*) %
GLP-1 secretion stimulating activity in comparison with the blank group (GLUTag cells [2]; peptide 5 mM): significantly higher
